Data on 65 compounds can be found in the supplement of paper PMC10290057.

Where a name gives a salt, the structure may show the parent alone.
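Further: Luminescence-based viability readout, five doses per compound, normalized against on-plate DMSO and empty-well controls, followed by dose-response curve fitting for every drug.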

The test system of this experiment is HCT116. Kind of experiment: efficacy (fitted maximal change in viability relative to DMSO control); higher = less cytotoxic (negative = loss of viability). To be noted: 48 h.
In the case of `Cc1ccc(NC(=O)Nc2nnc(Sc3ncnc4cc(OCCCN5CCOCC5)ccc34)s2)cc1` [SKLB4771], the efficacy was -24.1%.

Take `CC1OC(OC/2=C(/OC3=C(C(=CC(=C3)O)O)C2=O)C4=CC=C(O)C=C4)C(O)C(OC(C)=O)C1OC(C)=O` (stereo not given) [SL-0101-1]: the efficacy turned out to be 6.12%.

For `O=C1NC(=O)/C(=C/c2cccc(C(F)(F)F)c2)S1` [SMI-4a], the efficacy is -22.5%.

For the compound `CC1(C)CC(=O)c2c(C(F)(F)F)nn(-c3ccc(C(N)=O)c(NC4CCC(O)CC4)c3)c2C1` (stereo not given) [SNX-2112], the efficacy is -53.8%.

As to `CC1(C)CC(=O)c2c(C(F)(F)F)nn(-c3ccc(C(N)=O)c(NC4CCC(OC(=O)CN)CC4)c3)c2C1` (stereo not given) [SNX-5422], the efficacy is -57.9%.

Regarding `Cc1c(C)n(Cc2ccc(-c3ccccc3C(=O)O)cc2)c2ccc(C(=O)N[C@@H](C)c3ccc([N+](=O)[O-])cc3)cc12` [SR-1664], the efficacy was determined as 14.2%.

In the case of `Fc1cccc(-n2cnc3c(NCc4nc5ccc(F)c(F)c5[nH]4)nc(N4CCOCC4)nc32)c1` [SR-3029], the efficacy was -53.1%.

With `Cc1cc(C)c([S+](=O)([O-])N(CCc2cccc(Br)c2)Cc2ccc(-c3cccc([S+](C)(=O)[O-])c3)cc2)c(C)c1` [SR-9243], the efficacy was 15.4%.

For `COCCCc1sc(-c2ccccc2)nc1C(=O)Nc1ccccc1-c1nc2cc(CN3CCCC3)cnc2s1` [SRT-3025], the efficacy came out at 7.71%.

In the case of `CC1=C(F)C=CC(=C1)N2C(=O)\C=C/C3=C2C4=C([NH]C=C4)N=C3` [STK16-IN-1], the efficacy is -45.7%.

For `Cc1c[nH]c(/C=C2\C(=O)Nc3ccccc32)c1CCC(=O)O` [SU-5402], the efficacy is -32.1%.

For `CC(C)(C)NCC(O)c1ccc(O)c(CO)c1` (stereo not given) [Salbutamol sulfate], the efficacy was -14.1%.

Consider `OCc1ccccc1O[C@@H]1O[C@H](CO)[C@@H](O)[C@H](O)[C@H]1O` [Salicin], for which the efficacy came to 14%.

As for `CC(C)=CCC/C(C)=C/CC/C(C)=C/CSc1ccccc1C(=O)O` [Salirasib], the efficacy is -28.8%.

As to `CNC(=O)CN1CCC(Oc2cc3c(Nc4cccc(Cl)c4F)ncnc3cc2OC)CC1` [Sapitinib], the efficacy was -49.3%.

Take `OC(=O)\C1=C\N(C2=CC=C(F)C=C2)C3=C(C=C(F)C(=C3)N4CCNCC4)C1=O` [Sarafloxacin hydrochloride]: the efficacy came to 14%.

With `C[C@@H](c1ccc2nccn2c1)n1nnc2ncc(-c3cnn(C)c3)nc21` [Savolitinib], the efficacy is -32.1%.

Regarding `N#C[C@@H]1C[C@@H]2C[C@@H]2N1C(=O)[C@@H](N)C12CC3CC(CC(O)(C3)C1)C2` [Saxagliptin], the efficacy was -9.01%.

`COc1nc(-c2ccc3c(c2)OCO3)n(-c2ccc(NC(=O)CSc3ccccc3)cc2)n1` [Secin H3]: the efficacy is -15.5%.

As for `Cc1ncc([N+](=O)[O-])n1CC(C)O` (stereo not given) [Secnidazole], the efficacy is -13.5%.

`COc1cc(C[C@@H](CO)[C@H](CO)Cc2ccc(O)c(OC)c2)ccc1O` [Secoisolariciresinol]: the efficacy worked out at 9%.

With `CC(C)[C@H](O)C(=O)N[C@@H](C)C(=O)N[C@@H]1C(=O)N(C)CCc2ccccc21` [Semagacestat], the efficacy is -9.53%.

On to `Cc1cc(C)c(/C=C2\C(=O)Nc3ccccc32)[nH]1` [Semaxanib], for which the efficacy was -29.1%.

For `C\C1=C(/C)C(=O)\C(=C(\C)C1=O)C(CCCCCC(O)=O)C2=CC=CC=C2` (stereo not given) [Seratrodast], the efficacy is -11.8%.

Regarding `CC(C)[C@](O)(c1ccc2cc(OC(F)F)c(OC(F)F)cc2c1)c1c[nH]nn1` [Seviteronel], the efficacy is -56.2%.

For `CC(C)=CC[C@@H](O)C/1=C/C(=O)C2=C(O)C=CC(=C2C1=O)O` [Shikonin], the efficacy is -13.1%.

`CC(C)CC(N(C)C)C1(c2ccc(Cl)cc2)CCC1` (stereo not given) [Sibutramine hydrochloride]: the efficacy is -45.3%.

Consider `COc1cc([C@H]2Oc3cc([C@H]4Oc5cc(O)cc(O)c5C(=O)[C@@H]4O)ccc3O[C@@H]2CO)ccc1O` [Silybin], for which the efficacy was -13.3%.

As for `COC/1=C/[C@@H]2[C@@H]3CC4=C(C(=C(OC)C=C4)O)[C@]2(CCN3C)CC1=O` [Sinomenine], the efficacy is -20.7%.

As to `CO[C@H]1C[C@@H]2CC[C@@H](C)[C@@](O)(O2)C(=O)C(=O)N2CCCC[C@H]2C(=O)O[C@H]([C@@H](C)C[C@@H]2CC[C@@H](O)[C@H](OC)C2)CC(=O)[C@H](C)/C=C(\C)[C@@H](O)[C@@H](OC)C(=O)[C@H](C)C[C@H](C)/C=C/C=C/C=C/1C` [Sirolimus], the efficacy is -50.3%.

On to `Cc1cc2c(cc1CC(=O)c1sccc1[S+](=O)([O-])Nc1onc(C)c1Cl)OCO2` [Sitaxentan], for which the efficacy was -43.1%.

Regarding `O=C([O-])C(O)Cc1ccc(O)c(O)c1` (stereo not given) [Sodium Danshensu], the efficacy was -9.88%.

In the case of `OC(COC1=C2C(=O)\C=C(/OC2=CC=C1)C([O-])=O)COC3=C4C(=O)\C=C(/OC4=CC=C3)C([O-])=O` [Sodium cromoglycate], the efficacy was -6.55%.

Regarding `CC(C)OC(=O)[C@H](C)N[P@](=O)(OC[C@H]1O[C@@H](N2\C=C/C(=O)NC2=O)[C@](C)(F)[C@@H]1O)OC3=CC=CC=C3` [Sofosbuvir], the efficacy was -5.68%.

Turning to `CC1(C)CN(C(=O)c2ccc(-c3cccc4nc(NC(=O)C5CC5)nn34)cc2)C1` [Solcitinib], the efficacy is -18.3%.

For the compound `CC(C)NCC(O)c1ccc(N[S+](C)(=O)[O-])cc1` (stereo not given) [Sotalol], the efficacy was -17.6%.

As to `C[C@H]1CN(C[C@@H](C)N1)C2=C(F)C3=C(C(=C2F)N)C(=O)\C(=C/N3C4CC4)C(O)=O` [Sparfloxacin], the efficacy is -10.7%.

As for `C[C@]12Cc3cn[nH]c3C[C@@H]1CC[C@@H]1[C@@H]2CC[C@@]2(C)[C@H]1CC[C@]2(C)O` [Stanozolol], the efficacy is -19.3%.

Turning to `CC[C@H](/C=C/[C@@H](C)[C@H]1CC[C@H]2[C@@H]3CC=C4C[C@@H](O)CC[C@]4(C)[C@H]3CC[C@]12C)C(C)C` [Stigmasterol], the efficacy was 11.5%.

For the compound `CN(N=O)C(=O)N[C@@H]1[C@@H](O)[C@H](O)[C@@H](CO)O[C@@H]1O` [Streptozocin], the efficacy was -15.5%.

Consider `N#Cc1c(N(CC(=O)[O-])CC(=O)[O-])sc(C(=O)[O-])c1CC(=O)[O-]` [Strontium Ranelate], for which the efficacy is -15.5%.

As for `Cc1nnc(N[S+](=O)([O-])c2ccc(N)cc2)s1` [Sulfamethizole], the efficacy was -10.7%.

As for `O=C(O)c1cc(/N=N/c2ccc(S(=O)(=O)Nc3ccccn3)cc2)ccc1O` [Sulfasalazine], the efficacy came out at 8.3%.

`CC1=C(CC(=O)O)c2cc(F)ccc2/C1=C\c1ccc([S+](C)[O-])cc1` (stereo not given) [Sulindac]: the efficacy was -20.4%.

For the compound `CN[C@@H]1Cc2cccc3[nH]c(=O)n(c23)C1` [Sumanirole maleate], the efficacy is -12.4%.

For the compound `CCOCC(O)COc1ccc(NC(=O)CC[S+](C)C)cc1` (stereo not given) [Suplatast tosylate], the efficacy is -20.9%.

As to `Cc1ccc(C(=O)Nc2ccc([S+](=O)([O-])O)c3cc([S+](=O)([O-])O)cc([S+](=O)([O-])O)c23)cc1NC(=O)c1cccc(NC(=O)Nc2cccc(C(=O)Nc3cc(C(=O)Nc4ccc([S+](=O)([O-])O)c5cc([S+](=O)([O-])O)cc([S+](=O)([O-])O)c45)ccc3C)c2)c1` [Suramin sodium], the efficacy was -20.9%.

As to `CNCC(O)c1ccc(O)cc1` (stereo not given) [Synephrine], the efficacy is -16.7%.

On to `CCOC(=O)C1=CCCCC1[S+](=O)([O-])Nc1ccc(F)cc1Cl` (stereo not given) [TAK-242], for which the efficacy is -34.7%.

As for `Cn1cc(-c2nc(N[C@@H]3CCCC[C@@H]3N)c(F)c3c2C(=O)NC3)cn1` [TAK-659], the efficacy was -31.1%.

Turning to `CN1C(=O)/C(=C(NC2=CC=C(I)C=C2F)\C3=C1\N=C/N(C[C@@H](O)CO)C3=O)F` [TAK-733], the efficacy was -73.1%.

`C[N]1C2=C(SC(=C2)[S+](C)[O-])C\3=C1C(=O)N(CC4=CC(=CC=C4)N)\N=C3` (stereo not given) [TEPP-46]: the efficacy was 21.5%.

`C[C@@H]1C\C2=C(CCC(=O)C2)/[C@H]3CC[C@@]4(C)[C@@H](CC[C@@]4(O)C#C)[C@H]13` [TIBOLONE]: the efficacy was -7.38%.

As for `O=C(COCC(=O)N1CCN(C(c2ccccc2)c2ccccc2)CC1)Nc1ccc(Cl)cc1C(=O)O` [TM-5275], the efficacy amounted to 6.23%.

Take `CC(C)(CNC(=O)c1cccc(-c2noc(C(F)(F)F)n2)c1)c1coc(-c2ccccc2)n1` [TMP-195]: the efficacy was -21.4%.

As to `COC1=CC=C(C=C1)C(=O)C2CCN(CC2)CC(=O)N(CC3CC3)C\C4=N\C5=C(\COCC5)C(=O)N4` [TNKS-656], the efficacy was -13.6%.

Consider `Nc1c2c(nc3ccccc13)CCCC2` [Tacrine hydrochloride], for which the efficacy was -50.9%.

Turning to `CN(C(=O)c1ccc(F)cc1C(F)(F)F)C1CCN(c2nnc(-c3ccnn3C)c3ccccc23)CC1` [Taladegib], the efficacy is -25.6%.

`C[C@@H]1CN(Cc2ccc(F)cc2)[C@@H](C)CN1C(=O)c1cc2c(C(=O)C(=O)N(C)C)cn(C)c2cc1Cl` [Talmapimod]: the efficacy was -32.8%.

On to `Cc1coc2c1C(=O)C(=O)c1c-2ccc2c1CCCC2(C)C` [Tanshinone IIA], for which the efficacy was -14.6%.

For `COc1cc2c(cc1OC)CN(CCc1ccc(NC(=O)c3cc(OC)c(OC)cc3NC(=O)c3cnc4ccccc4c3)cc1)CC2` [Tariquidar], the efficacy is -11.3%.

With `COC1=CC=CC2=C1C(=C(/C(=O)N(C)C3=CC=C(C=C3)C(F)(F)F)C(=O)N2C)/O` [Tasquinimod], the efficacy is -6.06%.

On to `CCOC(=O)c1ccc(C#Cc2ccc3c(c2)C(C)(C)CCS3)nc1` [Tazarotene], for which the efficacy was -38.2%.

For the compound `CCN(C1CCOCC1)C2=C(C)C(=CC(=C2)C3=CC=C(CN4CCOCC4)C=C3)C(=O)NC\C5=C(C)\C=C(C)/NC5=O` [Tazemetostat], the efficacy was -59%.

In the case of `F\C1=C\N(C2CCCO2)C(=O)NC1=O` (stereo not given) [Tegafur], the efficacy was -8.62%.
